In patent US20230197192A1, “SELECTING NEOANTIGENS FOR PERSONALIZED CANCER VACCINE” (AMAZON TECHNOLOGIES, INC., priority 2020, published 2023):
Where a SMILES comes first, the peptide text is derived from it. Where no end group is shown, it is not given here.

Test: Visible dissolution of peptides in DMSO / 0.9% NaCl for pool formulation
Assay type: physicochemical
Conditions: not given
Experimental: Groups of peptides are selected and pooled. Up to four (4) pools with not more than (NMT) five (5) peptides in each pool were prepared. Each peptide was dissolved in 5.538% (v/v) DMSO followed by 0.9% NaCl solution, at a concentration of each peptide at 0.4158 mg/mL. Peptides which were visibly dissolved were accepted for that group's pool. Upon successful pooling of all peptides within a group, the pool was filtered through a 0.2 μm Nylon filter. Peptides were shipped in sterile tubes and labeled with Pool name, lot #, components, manufacturing data, quantity/concentration and storage conditions.

Compound | Solubility | Stability
SSCMGGMNQRPILTIITLED [DDDDD.9] | Cloudy | –
RSLTLEPDPIVVPGNVTLSVVG [GGGGG.33] | – | Clear
CSCC[C@H](NC(=O)[C@H](CC(C)C)NC(=O)[C@@H](NC(=O)[C@H](CCSC)NC(=O)[C@H](CC(C)C)NC(=O)[C@@H]1CCCN1C(=O)[C@H](C)NC(=O)[C@H](Cc1ccc(O)cc1)NC(=O)[C@@H]1CCCN1C(=O)[C@H](CC(=O)O)NC(=O)CNC(=O)[C@@H](NC(=O)CNC(=O)CNC(=O)[C@H](CC(C)C)NC(=O)CNC(=O)[C@H](CO)NC(=O)[C@H](Cc1ccc(O)cc1)NC(=O)[C@@H]1CCCN1)C(C)C)C(C)C)C(=O)N[C@@H](CS)C(=O)N[C@@H](CCCNC(=N)N)C(=O)N[C@H](C(=O)N[C@@H](CS)C(=O)N[C@@H](CC(C)C)C(=O)N[C@@H](CCC(=O)O)C(=O)N[C@@H](CC(=O)O)C(=O)O)C(C)C [GGGGG.17] (H-PYSGLGGVGDPYAPLMVLMCRVCLED-OH; N-terminus and C-terminus assumed) | – | Semi

Same assay, conditions: Peptide Synthesis Engineering Run Batch for Sample GGGGG; visual appearance of the peptide solution (Clear / Semi Cloudy / Cloudy)

Compound | Visual solubility (appearance of the peptide solution)
MSYELKCAQEL [GGGGG.49] | Clear
FETTTGFDPHSGTPLSDHEAL [GGGGG.7] | Clear
CC[C@H](C)[C@H](NC(=O)[C@H](C)NC(=O)CNC(=O)[C@H](CC(C)C)NC(=O)[C@H](CC(C)C)NC(=O)[C@H](CC(=O)O)NC(=O)[C@H](CS)NC(=O)[C@H](CO)NC(=O)[C@H](CCC(=O)O)NC(=O)[C@H](C)NC(=O)[C@@H]1CCCN1C(=O)[C@@H](N)CO)C(=O)N[C@@H](CCC(N)=O)C(=O)N[C@H](C(=O)N[C@@H](CS)C(=O)N[C@H](C(=O)N[C@@H](CCCNC(=N)N)C(=O)N[C@@H](CCCCN)C(=O)N[C@@H](CO)C(=O)N[C@@H](CC(C)C)C(=O)NCC(=O)O)[C@@H](C)CC)[C@@H](C)O [GGGGG.11] (H-SPAESCDLLGAIQTCIRKSLG-OH; N-terminus and C-terminus assumed) | Clear
VLGTSAPGSSRLAAVDLGG [GGGGG.2] | Clear
VSPDIFMQSHL [GGGGG.40] | Clear
SAPGSSRLAAV [GGGGG.36] | Clear
TVDMLQCLRFPGLALPHTRAPSPLG [GGGGG.35] | Clear
IQSIYGGLPKVPAKPKEPTIPH [GGGGG.23] | Clear
SAPGSSRLAA [GGGGG.46] | Clear
RFIGPLPREGSVGSTSDYVSQS [GGGGG.22] | Clear
HLINYQDDAELATHALPELTKLLNDEDPV [GGGGG.14] | Clear
VALSVRPI [GGGGG.37] | Clear
LIKPPAHTSAILTVLR [GGGGG.30] | Clear
NSLQNQALQTLQERLHEADAT [GGGGG.20] | Clear
SAVMQEEI [GGGGG.38] | Cloudy
AAIQEKKEI [GGGGG.39] | Clear

Compound | Visual solubility (appearance of the peptide solution)
CC(C)C[C@H](NC(=O)[C@@H](NC(=O)[C@H](Cc1c[nH]c2ccccc12)NC(=O)[C@H](C)NC(=O)[C@H](C)NC(=O)[C@@H](NC(=O)[C@H](Cc1ccccc1)NC(=O)[C@H](CCCCN)NC(=O)[C@H](C)N)C(C)C)[C@@H](C)O)C(=O)N[C@@H](CCCCN)C(=O)N[C@@H](C)C(=O)N[C@@H](C)C(=O)N[C@@H](C)C(=O)O [GGGGG.51] | Clear
LAPGQPFL [GGGGG.50] | Clear
MSYELKCAQELSQKQDG [GGGGG.31] | Clear
ARPPGGSGPLRVLIPDLQL [GGGGG.3] | Clear
QAYNALTL [GGGGG.41] | Clear
SLCQAPPL [GGGGG.48] | Clear
RVGDLSPKQKEALAKPEA [GGGGG.27] | Clear
LDRQHVQHQLLVILKELRK [GGGGG.34] | Clear
RVLIPDLQL [GGGGG.42] | Clear
PSAPQQEGVASKEKEEV [GGGGG.4] | Clear
YSGIQESSSASPLSIKKCPI [GGGGG.29] | Clear
APGSSRLA [GGGGG.43] | Clear
VDLKFPASVPTGAQDLISKL [GGGGG.25] | Clear
CC[C@H](C)[C@H](NC(=O)[C@H](CO)NC(=O)[C@H](CC(=O)O)NC(=O)[C@H](CCC(=O)O)NC(=O)[C@H](C)NC(=O)CN)C(=O)N[C@@H](CC(=O)O)C(=O)N[C@@H](CO)C(=O)N1CCC[C@H]1C(=O)N[C@@H](CO)C(=O)N[C@@H](C)C(=O)N[C@@H](CS)C(=O)N1CCC[C@H]1C(=O)N[C@@H](CC(C)C)C(=O)N[C@@H](CO)C(=O)N[C@H](C(=O)NCC(=O)N[C@@H](CS)C(=O)N1CCC[C@H]1C(=O)N[C@@H](C)C(=O)N[C@@H](CC(C)C)C(=O)O)[C@@H](C)O [GGGGG.21] (H-GAEDSIDSPSACPLSTGCPAL-OH; N-terminus and C-terminus assumed) | Clear
STAPAEATLPKPGEAEAP [GGGGG.16] | Clear

Same assay, conditions: Peptide synthesis engineering run batch for sample DDDDD_2020; appearance of the solution

Compound | Solubility
AQSRSSPTL [DDDDD.36] | Clear
KDKIWLRRTKPSKHQYQICLAIDDSSSM [DDDDD.17] | Clear
DSSIPSAATL [DDDDD.42] | Clear
TWHRGDAL [DDDDD.34] | Clear
GQRRDRLLTVQALSGL [DDDDD.14] | Clear
AVVSYVVADMKEMLPRS [DDDDD.25] | Clear
KVTNCFSV [DDDDD.33] | Clear
LQMLCPQEAPQILSRLEAVR [DDDDD.7] | Clear
FGALHEDANKVIKPTSSNTA [DDDDD.5] | Clear
QELSPEKLKSWGGSLLGPWLSSGLKPLK [DDDDD.18] | Clear
EAQSRSSPTL [DDDDD.40] | Clear
CC(C)C[C@H](NC(=O)[C@@H](NC(=O)[C@H](Cc1c[nH]c2ccccc12)NC(=O)[C@H](C)NC(=O)[C@H](C)NC(=O)[C@@H](NC(=O)[C@H](Cc1ccccc1)NC(=O)[C@H](CCCCN)NC(=O)[C@H](C)N)C(C)C)[C@@H](C)O)C(=O)N[C@@H](CCCCN)C(=O)N[C@@H](C)C(=O)N[C@@H](C)C(=O)N[C@@H](C)C(=O)O [DDDDD.46] | Clear
RRWRKLYRANSHLFQAKRFN [DDDDD.24] | Clear
NTSALPLVSL [DDDDD.41] | Clear
WLPELPSLPSNGDPPAICE [DDDDD.15] | Clear
MSKPKWPLEDEISKPEVP [DDDDD.3] | Clear
SAGENPLEEEE [DDDDD.43] | Clear
APPTRLAPPQRPPPPS [DDDDD.22] | Clear
LLGTVDKHSVKVTNCFSVPHN [DDDDD.16] | Clear
GQLFPYRARIEIKNKF [DDDDD.27] | Clear
DPRLVIFSGCATRLFEA [DDDDD.11] | Cloudy
FEAPGFNTTTA [DDDDD.45] | Clear

Same assay, conditions: Peptide synthesis engineering run batch for sample FFFFF; appearance of the solution

Compound | Solubility
YGRTVVPFLVPGTSQLGQ [FFFFF.9] | Clear
HKDAVTCVNFSSSGHLLASGSR [FFFFF.29] | Clear
RNLYISGFSLCFWLVLRRLVT [FFFFF.26] | Cloudy
LSPYPEHL [FFFFF.50] | Clear
MILASPRYVDQVTEFLQQKLK [FFFFF.18] | Clear
VGRAWDAITDHLVGLCISKSP [FFFFF.19] | Clear
YKTDLHSL [FFFFF.37] | Clear
NSASMKQAL [FFFFF.47] | Clear
LLLQEEEL [FFFFF.42] | Clear
CC(C)C[C@H](NC(=O)[C@@H](NC(=O)[C@H](Cc1c[nH]c2ccccc12)NC(=O)[C@H](C)NC(=O)[C@H](C)NC(=O)[C@@H](NC(=O)[C@H](Cc1ccccc1)NC(=O)[C@H](CCCCN)NC(=O)[C@H](C)N)C(C)C)[C@@H](C)O)C(=O)N[C@@H](CCCCN)C(=O)N[C@@H](C)C(=O)N[C@@H](C)C(=O)N[C@@H](C)C(=O)O [FFFFF.51] | Clear
FLSPGQLLQEPRTSLLIINNT [FFFFF.20] | Cloudy
CC(C)C[C@H](NC(=O)[C@H](CS)NC(=O)[C@H](CS)NC(=O)[C@H](CCC(=O)O)NC(=O)[C@H](Cc1c[nH]c2ccccc12)NC(=O)[C@H](Cc1ccccc1)NC(=O)[C@H](CCC(N)=O)NC(=O)[C@H](C)NC(=O)[C@@H](N)CC(C)C)C(=O)O [FFFFF.38] (H-LAQFWECCL-OH; N-terminus and C-terminus assumed) | Cloudy
NSLTSSVL [FFFFF.45] | Clear
KLESTVGSPKKPLSDLGKLS [FFFFF.22] | Clear
EDTGQDMLALFLRTNRQAAK [FFFFF.8] | Clear
CC(C)C[C@H](NC(=O)[C@H](CS)NC(=O)[C@H](CS)NC(=O)[C@H](CCC(=O)O)NC(=O)[C@H](Cc1c[nH]c2ccccc12)NC(=O)[C@H](Cc1ccccc1)NC(=O)[C@H](CCC(N)=O)NC(=O)[C@H](C)N)C(=O)O [FFFFF.41] (H-AQFWECCL-OH; N-terminus and C-terminus assumed) | Cloudy
LGIGGLQDL [FFFFF.49] | Clear
PLNPPASTAFSQEPHSGSPA [FFFFF.24] | Clear
YIHTSVSQDFSQSVPGTTSSPL [FFFFF.10] | Clear
PTLPQPASHFSPPPPPPPLPP [FFFFF.5] | Clear
TGQDMLAL [FFFFF.36] | Clear
RSTTKSPGPSRHSKSPASTSSVN [FFFFF.21] | Clear
